The structures appear in SMILES notation. pEC50: −log10 of the molar value.

The test system of experiment [1] is Trypanosoma brucei Lister 427 strain, bloodstream form. Put plainly: Assay for proliferation of kinetoplastid parasite Trypanosoma brucei (Cell Titer Glo, 48 hours). The experiment is classed as cell-based. Particulars: Trypanosoma brucei, T. brucei Lister 427 bloodstream form; read-out: T. brucei EC50. The method in brief:
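Bloodstream-form T. brucei Lister 427 in HMI-9 medium was exposed to compound (DMSO vehicle) for 48 hours at 37° C, 5% CO2. Parasite growth was read as ATP by CellTiter-Glo luminescence, with EC50 calculated from percent inhibition.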
(In general: Cellular ATP, detected with luciferase, serves as a proxy for viable cell number.)

Experiment [2] deals with Trypanosoma cruzi amastigotes (Tulahuen strain expressing Lac-Z) cultured in 3T3 fibroblast cells. The experiment is described as follows: microbe, parasite or virus in culture. The class given is cell-based. Particulars: Trypanosoma cruzi, TULAHUEN, Fibroblast, T. cruzi amastigotes in 3T3 fibroblast cells; read-out: T cruzi EC50.
Experiment [3] has as its system L. donovani HU3 strain in mouse peritoneal macrophages. Put plainly: Assay for proliferation of Leishmania parasites in infected mouse peritoneal macrophages (SybrGreen staining, high-content imaging, 5 days). The experiment is classed as cell-based, Leishmania donovani. The note with it: Leishmania donovani, Peritoneal macrophage, L. donovani in mouse peritoneal macrophages; read-out: L. donovani Macrophage EC50.

Experiment [4] concerns Leishmania donovani axenic amastigote parasites. The experiment is described as follows: Leishmania donovani axenic amastigote proliferation assay (Cell TiterGlo luminescence, 2 day incubation). The experiment is classed as cell-based. The note with it: Leishmania donovani, L. donovani axenic amastigotes; read-out: L. donovani amastigotes EC50.

In general, pEC50 refers to the EC50 on a negative log10 scale, so that one unit is a factor of ten. With `Cc1nc(C)c(C(=O)Nc2ccc(F)c(-c3cn4cc(-c5nccn5C)cnc4n3)c2)o1` [Compound 427], the pEC50 in experiment [1] is 6.79; in experiment [2] it was 5.88; in experiment [3], 6.36; in experiment [4], 6.63.

Turning to `Cc1nc(C)c(C(=O)Nc2ccc(F)c(-c3cn4cc(-c5cn(C(C)C)cn5)cnc4n3)c2)o1` [Compound 428], the negative logarithm of the EC50 (pEC50) in experiment [1] is 6.79; in experiment [2], 6.35; in experiment [3], 6.54; in experiment [4] it was 7.00.

In the case of `Cc1nc(C)c(C(=O)Nc2ccc(F)c(-c3cn4cc(-c5ncc(F)cc5C)cnc4n3)c2)o1` [Compound 430, N-(4-fluoro-3-(6-(5-fluoro-3-methylpyridin-2-yl)imidazo[1,2-a]pyrimidin-2-yl)phenyl)-2,4-dimethyloxazole-5-carboxamide], the pEC50 in experiment [1] was 7.28; in experiment [2], 8.00; in experiment [3], 7.23; in experiment [4], 7.51.

Take `Cc1nc(C)c(C(=O)Nc2ccc(F)c(-c3cn4cc(-c5ccc(F)cn5)cnc4n3)c2)o1` [Compound 431]: the negative logarithm of the EC50 (pEC50) is 6.83 in experiment [1], 7.34 in experiment [2], 6.07 in experiment [3] and 7.10 in experiment [4].

For `CNc1ccc(-c2cnc3nc(-c4cc(NC(=O)c5oc(C)nc5C)ccc4F)cn3c2)nc1` [Compound 432], the pEC50 in experiment [1] was 7.74; in experiment [2], 7.68; in experiment [3] it was 7.48; in experiment [4] it was 7.92.

Turning to `Cc1nc(C)c(C(=O)Nc2ccc(F)c(-c3cn4cc(-c5cccc(C(N)=O)n5)cnc4n3)c2)o1` [Compound 433], the pEC50 in experiment [1] is 6.31; in experiment [2] it was below 4.70; in experiment [3] it was below 4.30; in experiment [4], 5.74.

Consider `Cc1nc(C)c(C(=O)Nc2ccc(F)c(-c3cn4cc(-c5cccc(F)n5)cnc4n3)c2)o1` [Compound 434], for which the pEC50 was 6.80 in experiment [1], 7.38 in experiment [2], 6.03 in experiment [3] and 6.97 in experiment [4].

Regarding `Cc1nc(C)c(C(=O)Nc2ccc(F)c(-c3cn4cc(-c5cc(F)ccn5)cnc4n3)c2)o1` [Compound 435], the negative logarithm of the EC50 (pEC50) was 7.38 in experiment [1], 7.80 in experiment [2], 7.31 in experiment [3] and 7.72 in experiment [4].

Take `Cc1nc(C)c(C(=O)Nc2ccc(F)c(-c3cn4cc(-c5ccc(F)nc5)cnc4n3)c2)o1` [Compound 436]: the pEC50 in experiment [1] was 7.14; in experiment [2], 7.30; in experiment [3], 5.77; in experiment [4], 7.11.

Regarding `CC(=O)c1ccc(-c2cnc3nc(-c4cc(NC(=O)c5oc(C)nc5C)ccc4F)cn3c2)cn1` [Compound 437], the pEC50 in experiment [1] is 6.39; in experiment [2] it was 6.17; in experiment [3], 5.90; in experiment [4], 7.10.

Regarding `Cc1nc(C)c(C(=O)Nc2ccc(F)c(-c3cn4cc(-c5cncc(C(C)C)c5)cnc4n3)c2)o1` [Compound 438], the negative logarithm of the EC50 (pEC50) in experiment [1] is 6.96; in experiment [2] it was 6.84; in experiment [3], 6.55; in experiment [4], 6.85.

As for `Cc1cnc(F)c(-c2cnc3nc(-c4cc(NC(=O)c5oc(C)nc5C)ccc4F)cn3c2)c1` [Compound 439], the pEC50 in experiment [1] was 6.92; in experiment [2], 7.05; in experiment [3], 6.12; in experiment [4] it was 6.97.

Turning to `Cc1cncc(-c2cnc3nc(-c4cc(NC(=O)c5oc(C)nc5C)ccc4F)cn3c2)c1` [Compound 440], the pEC50 in experiment [1] was 6.50; in experiment [2], 6.62; in experiment [3], 6.70; in experiment [4], 6.92.

As for `Cc1ccc(-c2cnc3nc(-c4cc(NC(=O)c5oc(C)nc5C)ccc4F)cn3c2)cn1` [Compound 441], the pEC50 in experiment [1] is 6.51; in experiment [2] it was 6.85; in experiment [3] it was 6.04; in experiment [4] it was 7.01.

As for `Cc1nc(C)c(C(=O)Nc2ccc(F)c(-c3cn4cc(-c5cnccc5C)cnc4n3)c2)o1` [Compound 442], the negative-log EC50 (pEC50) was 7.26 in experiment [1], 7.32 in experiment [2], 6.68 in experiment [3] and 7.06 in experiment [4].

Regarding `Cc1nc(C)c(C(=O)Nc2ccc(F)c(-c3cn4cc(-c5cncc(F)c5)cnc4n3)c2)o1` [Compound 443], the pEC50 in experiment [1] was 7.47; in experiment [2] it was 6.99; in experiment [3], 6.84; in experiment [4] it was 7.09.

`Cc1nc(C)c(C(=O)Nc2ccc(F)c(-c3cn4cc(-c5ccncc5F)cnc4n3)c2)o1` [Compound 444]: the negative-log EC50 (pEC50) is 7.60 in experiment [1], 7.30 in experiment [2], 6.74 in experiment [3] and 7.07 in experiment [4].

On to `Cc1ccc(-c2cnc3nc(-c4cc(NC(=O)c5oc(C)nc5C)ccc4F)cn3c2)nc1` [Compound 445], for which the negative logarithm of the EC50 (pEC50) in experiment [1] is 7.51; in experiment [2], 7.85; in experiment [3] it was 6.16; in experiment [4] it was 7.92.

Take `Cc1nc(C)c(C(=O)Nc2ccc(F)c(-c3cn4cc(-c5cnc(C(C)C)cn5)cnc4n3)c2)o1` [Compound 446]: the pEC50 was 6.79 in experiment [1], 6.91 in experiment [2], 6.84 in experiment [3] and 7.48 in experiment [4].

On to `Cc1nc(C)c(C(=O)Nc2ccc(F)c(-c3cn4cc(-c5ncc(F)cc5F)cnc4n3)c2)o1` [Compound 447], for which the pEC50 in experiment [1] is 6.99; in experiment [2], 7.70; in experiment [3] it was 5.86; in experiment [4], 7.44.

For `Cc1ccc(-c2cnc3nc(-c4cc(NC(=O)c5oc(C)nc5C)ccc4F)cn3c2)nn1` [Compound 448], the pEC50 in experiment [1] is 6.80; in experiment [2], 6.10; in experiment [3], 5.29; in experiment [4], 6.97.

In the case of `Cc1nc(C)c(C(=O)Nc2ccc(F)c(-c3cn4cc(-c5ncccc5F)cnc4n3)c2)o1` [Compound 449], the pEC50 is 7.25 in experiment [1], 7.66 in experiment [2], 7.27 in experiment [3] and 7.55 in experiment [4].

With `Cc1nc(C)c(C(=O)Nc2ccc(F)c(-c3cn4cc(-c5ccc(CCN(C)C)cc5)cnc4n3)c2)o1` [Compound 450], the pEC50 in experiment [1] is 6.30; in experiment [2], 6.40; in experiment [3], 5.52; in experiment [4] it was 5.34.

With `CNCCc1ccc(-c2cnc3nc(-c4cc(NC(=O)c5oc(C)nc5C)ccc4F)cn3c2)cc1` [Compound 451], the negative logarithm of the EC50 (pEC50) was 6.01 in experiment [1], 5.71 in experiment [2], 5.71 in experiment [3] and 5.19 in experiment [4].

On to `Cc1cnc(-c2cnc3nc(-c4cc(NC(=O)c5oc(C)nc5C)ccc4F)cn3c2)cn1` [Compound 452], for which the pEC50 in experiment [1] is 7.01; in experiment [2], 7.35; in experiment [3] it was 7.21; in experiment [4], 7.72.

Take `Cc1nc(C)c(C(=O)Nc2ccc(F)c(-c3cn4cc(-c5ncccc5C)cnc4n3)c2)o1` [Compound 453]: the pEC50 was 7.68 in experiment [1], 7.82 in experiment [2], 7.64 in experiment [3] and 7.77 in experiment [4].
